Data taken from US11642344B2, “Cholesteryl ester transfer protein (CETP) inhibitor and pharmaceutical compositions comprising said inhibitor for use in the treatment or prevention of cardiovascular diseases” (NewAmsterdam Pharma B.V., priority 2014, dated 2023).

Molecular target: T1, CETP (Homo sapiens, UniProt P11597)
T1 construct: from tissue; host or cells: plasma of Caucasian male subjects dosed with Compound A or placebo
T1 sequence (P11597 18-493): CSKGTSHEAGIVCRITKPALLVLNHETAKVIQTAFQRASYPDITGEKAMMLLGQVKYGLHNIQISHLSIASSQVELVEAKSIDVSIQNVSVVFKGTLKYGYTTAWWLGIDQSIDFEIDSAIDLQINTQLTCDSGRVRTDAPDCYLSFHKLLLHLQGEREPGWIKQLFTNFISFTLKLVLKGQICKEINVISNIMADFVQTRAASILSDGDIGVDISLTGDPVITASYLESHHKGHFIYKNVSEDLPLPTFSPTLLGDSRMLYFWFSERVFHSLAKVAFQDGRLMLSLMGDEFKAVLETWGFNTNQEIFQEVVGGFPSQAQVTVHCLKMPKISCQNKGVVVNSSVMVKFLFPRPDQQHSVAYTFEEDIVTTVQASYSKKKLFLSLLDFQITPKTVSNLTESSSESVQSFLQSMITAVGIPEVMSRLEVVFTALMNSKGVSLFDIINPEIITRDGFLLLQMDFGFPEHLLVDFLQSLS
Assay: In vitro CETP assay: 3H-labeled CE transfer from HDL to VLDL/LDL in human plasma
Format: biochemical
Details: 24 h pre-incubation at 37° C.
Procedure: Human blood was obtained from healthy male volunteers using 0.1% EDTA as an anticoagulant, and centrifuged at 3,000 rpm for 15 minutes at 4° C. Human plasma was pooled, and then used for the preparation of ^3H-labeled HDL or stored at −80° C. for CETP assay until use. The ^3H-labeled HDL was prepared with human plasma as described by Glenn and Melton (Methods in enzymology. 263; 339-351, 1996). The specific gravity of plasma was measured by a hydrometer, and the density was adjusted to 1.125 g/mL by adding solid KBr. After centrifugation at 100,000 rpm for 4 hours at 12° C. (rotor: 100.4, Optima TLX, Beckman), d>1.125 g/mL fraction was dialyzed against 4 L of Tris-saline-EDTA buffer (TSE; 50 mmol/L Tris, 150 mmol/L NaCl, 2 mmol/L EDTA, pH7.4) for 18 hours at 4° C. [1,2-^3H(N)]-Cholesterol (37 MBq/mL) was added to the dialyzed plasma fraction at the amount of 2 μCi/mL. The tube was tightly sealed under N2 gas stream and incubated at 37° C. for 18 hours with gently stirring to allow esterification of radio-labeled cholesterol by endogenous LCAT. The incubated plasma fraction was adjusted to d=1.21 g/mL with solid KBr, and centrifuged at 100,000 rpm, 12° C. for 5 hours. ^3H-labeled HDL fraction was dialyzed against 2 L of TSE at 4° C. for 18 hours. The radioactivity of ^3H-labeled HDL was counted in a liquid scintillation counter. ^3H-labeled HDL was stored at 4° C. until use.
CETP activity was determined as the rate of ^3H-labeled CE transfer from donor HDL to acceptor VLDL/LDL. Human plasma (94 μL) was pre-incubated with compounds dissolved in DMSO (1 μL) 24 hours at 37° C., and then incubated for 4 hours at 4° C. or 37° C. with 5 μL of ^3H-labeled HDL. One hundred μL of phosphotungstate/MgCl2 reagent (Wako pure chemical) were added to precipitate apoB-containing lipoproteins. After centrifugation at 3,000 rpm for 10 minutes at room temperature, the radioactivity of the supernatant was counted in a liquid scintillation counter. […] The concentration achieving 50% inhibition of CETP activity (IC50) was estimated.

CCOC(=O)N1c2ccc(C(F)(F)F)cc2[C@@H](N(Cc2cc(C(F)(F)F)cc(C(F)(F)F)c2)c2ncc(OCCCC(=O)O)cn2)C[C@H]1CC [Compound A, {4-[(2-{[3,5-bis(trifluoromethyl)benzyl][(2R,4S)-1-(ethoxycarbonyl)-2-ethyl-6-(trifluoromethyl)-1,2,3,4-tetrahydroquinolin-4-yl]amino}pyrimidin-5-yl)oxy]butanoic acid}]
IC50: 0.064 µM
